Measured values as given in patent US10590132B2, “Selective estrogen receptor down-regulators” (AstraZeneca AB, priority 2017, dated 2020).

Test: Human plasma protein binding (equilibrium dialysis)
Type: in vitro ADME
Conditions: dialysis 18 hours

| Human plasma protein binding (% free) | SMILES |
| --- | --- |
| 0.21 % free | C[C@@H]1Cc2c([nH]c3ccccc23)[C@@H](c2c(Cl)ccc(OCCNCCCF)c2F)N1CC(F)(F)F [Example 78, N-(2-(4-chloro-2-fluoro-3-((1R,3R)-3-methyl-2-(2,2,2-trifluoroethyl)-2,3,4,9-tetrahydro-1H-pyrido[3,4-b]indol-1-yl)phenoxy)ethyl)-3-fluoropropan-1-amine] |
| 2.1 % free | Cc1c(N(C)CCNCCCF)ccc(F)c1[C@@H]1c2[nH]c3ccccc3c2C[C@@H](C)N1C[C@H](C)C(=O)O [Example 136, (S)-3-((1R,3R)-1-(6-fluoro-3-((2-((3-fluoropropyl)amino)ethyl)(methyl)amino)-2-methylphenyl)-3-methyl-1,3,4,9-tetrahydro-2H-pyrido[3,4-b]indol-2-yl)-2-methylpropanoic acid] |
| 13 % free | Cc1c(OCCN(C)CCCF)ncc(F)c1[C@@H]1c2[nH]c3ccccc3c2C[C@@H](C)N1C(C)CC(=O)O (single isomer, unassigned) [Example 159] |
| 2 % free | Cc1c([C@@H]2c3[nH]c4ccccc4c3C[C@@H](C)N2CC(F)(F)CO)ccnc1OCCNCCCF [Example 103, 2,2-difluoro-3-((1R,3R)-1-(2-(2-((3-fluoropropyl)amino)ethoxy)-3-methylpyridin-4-yl)-3-methyl-1,3,4,9-tetrahydro-2H-pyrido[3,4-b]indol-2-yl)propan-1-ol] |
| 7 % free | C[C@@H]1Cc2c([nH]c3ccccc23)[C@@H](c2nccc(NCCNCCCF)c2F)N1CC(F)(F)F [Example 94, N1-(3-fluoro-2-((1S,3R)-3-methyl-2-(2,2,2-trifluoroethyl)-2,3,4,9-tetrahydro-1H-pyrido[3,4-b]indol-1-yl)pyridin-4-yl)-N2-(3-fluoropropyl)ethane-1,2-diamine] |
| 1.6 % free | C[C@@H]1Cc2c([nH]c3ccc(F)cc23)[C@@H](c2c(F)cnc(OCCN(C)CCCF)c2F)N1CC(F)(F)CO [Example 67, 3-((1R,3R)-1-(3,5-difluoro-2-(2-((3-fluoropropyl)(methyl)amino)ethoxy)pyridin-4-yl)-6-fluoro-3-methyl-1,3,4,9-tetrahydro-2H-pyrido[3,4-b]indol-2-yl)-2,2-difluoropropan-1-ol] |
| 23 % free | C[C@@H]1Cc2c([nH]c3ccccc23)[C@@H](c2cc(OCCNCCCF)ccc2CO)N1CC(F)(F)F [Example 70, (4-(2-((3-fluoropropyl)amino)ethoxy)-2-((1R,3R)-3-methyl-2-(2,2,2-trifluoroethyl)-2,3,4,9-tetrahydro-1H-pyrido[3,4-b]indol-1-yl)phenyl)methanol] |
| 0.97 % free | Cc1ccc2[nH]c3c(c2c1)C[C@@H](C)N(CC(F)(F)CO)[C@@H]3c1c(F)ccc(OCCNCCCF)c1F [Example 63, 3-((1R,3R)-1-(2,6-difluoro-3-(2-((3-fluoropropyl)amino)ethoxy)phenyl)-3,6-dimethyl-1,3,4,9-tetrahydro-2H-pyrido[3,4-b]indol-2-yl)-2,2-difluoropropan-1-ol] |
| 2.3 % free | C[C@@H]1Cc2c([nH]c3ccccc23)[C@@H](c2c(F)cnc(OCCNCCCF)c2F)N1CC1(F)CC1 [Example 108, N-(2-((3,5-difluoro-4-((1R,3R)-2-((1-fluorocyclopropyl)methyl)-3-methyl-2,3,4,9-tetrahydro-1H-pyrido[3,4-b]indol-1-yl)pyridin-2-yl)oxy)ethyl)-3-fluoropropan-1-amine] |
| 1.2 % free | COc1cc(F)c(OCCNCCCF)cc1[C@@H]1c2[nH]c3ccccc3c2C[C@@H](C)N1CC(F)(F)F [Example 28, 3-fluoro-N-(2-(2-fluoro-4-methoxy-5-((1R,3R)-3-methyl-2-(2,2,2-trifluoroethyl)-2,3,4,9-tetrahydro-1H-pyrido[3,4-b]indol-1-yl)phenoxy)ethyl)propan-1-amine] |
| 5.5 % free | C[C@@H]1Cc2c([nH]c3ccccc23)[C@@H](c2c(F)ccc(OCCNCCCF)c2F)N1CC1(S(C)(=O)=O)CC1 [Example 77, N-(2-(2,4-difluoro-3-((1R,3R)-3-methyl-2-((1-(methylsulfonyl)cyclopropyl)methyl)-2,3,4,9-tetrahydro-1H-pyrido[3,4-b]indol-1-yl)phenoxy)ethyl)-3-fluoropropan-1-amine] |
| 1.2 % free | C[C@@H]1Cc2c([nH]c3ccccc23)[C@@H](c2cccc(OCCNCCCF)c2C(F)F)N1CC(F)(F)CO [Example 68, 3-((1R,3R)-1-(2-(difluoromethyl)-3-(2-((3-fluoropropyl)amino)ethoxy)phenyl)-3-methyl-1,3,4,9-tetrahydro-2H-pyrido[3,4-b]indol-2-yl)-2,2-difluoropropan-1-ol] |
| 34 % free | Cc1c([C@@H]2c3[nH]c4ccccc4c3C[C@@H](C)N2C[C@H](C)C(=O)O)ccnc1OCCNCCCF [Example 132, (S)-3-((1R,3R)-1-(2-2-((3-(fluoropropyl)amino)ethoxy)-3-methylpyridin-4-yl)-3-methyl-1,3,4,9-tetrahydro-2H-pyrido[3,4-b]indol-2-yl)-2-methylpropanoic acid] |
| 3.7 % free | C[C@@H]1Cc2c([nH]c3ccccc23)[C@@H](c2cc(OCCNCCCF)ccc2C#N)N1CC(F)(F)F [Example 23, 4-(2-((3-fluoropropyl)amino)ethoxy)-2-((1R,3R)-3-methyl-2-(2,2,2-trifluoroethyl)-2,3,4,9-tetrahydro-1H-pyrido[3,4-b]indol-1-yl)benzonitrile] |
| 2.4 % free | COc1ccc(OCCNCCCF)cc1[C@@H]1c2[nH]c3ccc(F)cc3c2C[C@@H](C)N1CC(F)(F)CO [Example 46, 2,2-difluoro-3-((1R,3R)-6-fluoro-1-(5-(2-((3-fluoropropyl)amino)ethoxy)-2-methoxyphenyl)-3-methyl-1,3,4,9-tetrahydro-2H-pyrido[3,4-b]indol-2-yl)propan-1-ol] |
| 0.08 % free | C[C@@H]1Cc2c([nH]c3ccccc23)[C@@](C)(c2cccc(OCCNCCCF)c2)N1CC(F)(F)F [Example 75, N-(2-(3-((1R,3R)-1,3-dimethyl-2-(2,2,2-trifluoroethyl)-2,3,4,9-tetrahydro-1H-pyrido[3,4-b]indol-1-yl)phenoxy)ethyl)-3-fluoropropan-1-amine] |
| 7.1 % free | COc1ccc(OC[C@@H](C)NCCCF)cc1[C@@H]1c2[nH]c3ccccc3c2C[C@@H](C)N1CC(F)(F)CO [Example 50, 2,2-difluoro-3-((1R,3R)-1-(5-((R)-2-((3-fluoropropyl)amino)propoxy)-2-methoxyphenyl)-3-methyl-1,3,4,9-tetrahydro-2H-pyrido[3,4-b]indol-2-yl)propan-1-ol] |
| 2.3 % free | C[C@@H]1Cc2c([nH]c3ccccc23)[C@@H](c2cc(OCCNCCCF)ccc2Cl)N1CC(F)(F)CO [Example 44, 3-((1R,3R)-1-(2-chloro-5-(2-((3-fluoropropyl)amino)ethoxy)phenyl)-3-methyl-1,3,4,9-tetrahydro-2H-pyrido[3,4-b]indol-2-yl)-2,2-difluoropropan-1-ol] |
| 2.8 % free | COc1ccc(NCCNCCCF)nc1[C@@H]1c2[nH]c3ccccc3c2C[C@@H](C)N1CC(F)(F)F [Example 43, N1-(3-fluoropropyl)-N2-(5-methoxy-6-((1S,3R)-3-methyl-2-(2,2,2-trifluoroethyl)-2,3,4,9-tetrahydro-1H-pyrido[3,4-b]indol-1-yl)pyridin-2-yl)ethane-1,2-diamine] |
| 36 % free | Cc1c(OCCNCCCF)ccc(F)c1[C@@H]1c2[nH]c3ccccc3c2CC(C)(C)N1C[C@H](C)C(=O)O [Example 134, (S)-3-((R)-1-(6-fluoro-3-(2-((3-fluoropropyl)amino)ethoxy)-2-methylphenyl)-3,3-dimethyl-1,3,4,9-tetrahydro-2H-pyrido[3,4-b]indol-2-yl)-2-methylpropanoic acid] |
| 21 % free | Cc1c(OCCN(C)CCCF)ncc(F)c1[C@@H]1c2[nH]c3ccccc3c2C[C@@H](C)N1C(C)CC(=O)O (single isomer, unassigned) [Example 158] |
| 1.5 % free | COc1nnc(OCCNCCCF)cc1[C@@H]1c2[nH]c3ccccc3c2C[C@@H](C)N1CC(F)(F)F [Example 112, 3-fluoro-N-(2-((6-methoxy-5-((1R,3R)-3-methyl-2-(2,2,2-trifluoroethyl)-2,3,4,9-tetrahydro-1H-pyrido[3,4-b]indol-1-yl)pyridazin-3-yl)oxy)ethyl)propan-1-amine] |
| 32 % free | Cc1c(NCCNCCCF)ccc(F)c1[C@@H]1c2[nH]c3ccccc3c2C[C@@H](C)N1C[C@H](C)C(=O)O [Example 135, (S)-3-((1R,3R)-1-(6-fluoro-3-((2-((3-fluoropropyl)amino)ethyl)amino)-2-methylphenyl)-3-methyl-1,3,4,9-tetrahydro-2H-pyrido[3,4-b]indol-2-yl)-2-methylpropanoic acid] |
| 6.1 % free | COc1ccc(O[C@H](C)CNCCCF)cc1[C@@H]1c2[nH]c3ccccc3c2C[C@@H](C)N1CC(F)(F)CO [Example 47, 2,2-difluoro-3-((1R,3R)-1-(5-(((R)-1-((3-fluoropropyl)amino)propan-2-yl)oxy)-2-methoxyphenyl)-3-methyl-1,3,4,9-tetrahydro-2H-pyrido[3,4-b]indol-2-yl)propan-1-ol] |
| 0.61 % free | C[C@@H]1Cc2c([nH]c3ccccc23)[C@@H](c2cc(OCCNCCCF)ccc2Cl)N1CC(F)(F)F [Example 22, N-(2-(4-chloro-3-((1R,3R)-3-methyl-2-(2,2,2-trifluoroethyl)-2,3,4,9-tetrahydro-1H-pyrido[3,4-b]indol-1-yl)phenoxy)ethyl)-3-fluoropropan-1-amine] |
| 5.4 % free | C[C@@H]1Cc2c([nH]c3ccccc23)[C@@H](c2cc(OCCNCCCF)ccn2)N1CC(F)(F)F [Example 35, 3-fluoro-N-(2-((2-((1S,3R)-3-methyl-2-(2,2,2-trifluoroethyl)-2,3,4,9-tetrahydro-1H-pyrido[3,4-b]indol-1-yl)pyridin-4-yl)oxy)ethyl)propan-1-amine] |
